Laboratory results: BigSolDB 2.1

Q: With Cc1ccc(CO)cc1 as the compound, how does the solubility (mole fraction) (in 1,2-dichloroethane, 278.15 K) read?
A: Its solubility (mole fraction) is 0.166.

Q: And the solubility (mole fraction) (in 1,2-dichloroethane, 283.15 K)?
A: Its solubility (mole fraction) is 0.214.

Q: And the solubility (mole fraction) (in 1,2-dichloroethane, 288.15 K)?
A: The solubility (mole fraction) was 0.28.

Q: And the solubility (mole fraction) (in 1,2-dichloroethane, 293.15 K)?
A: The solubility (mole fraction) was 0.343.

Q: What about the solubility (mole fraction) (in 1,2-dichloroethane, 298.15 K) of the same compound?
A: The solubility (mole fraction) was 0.418.

Q: What about the solubility (mole fraction) (in 1,2-dichloroethane, 303.15 K) of the same compound?
A: Its solubility (mole fraction) is 0.506.

Q: What about the solubility (mole fraction) (in 1,2-dichloroethane, 308.15 K) of the same compound?
A: Its solubility (mole fraction) is 0.585.

Q: What about the solubility (mole fraction) (in 1,2-dichloroethane, 313.15 K) of the same compound?
A: The solubility (mole fraction) was 0.685.

Q: What about the solubility (mole fraction) (in acetone, 278.15 K) of the same compound?
A: Its solubility (mole fraction) is 0.226.

Q: And the solubility (mole fraction) (in acetone, 283.15 K)?
A: The solubility (mole fraction) was 0.272.

Q: What about the solubility (mole fraction) (in acetone, 288.15 K) of the same compound?
A: Its solubility (mole fraction) is 0.321.

Q: And the solubility (mole fraction) (in acetone, 293.15 K)?
A: The solubility (mole fraction) was 0.384.

Q: And the solubility (mole fraction) (in acetone, 298.15 K)?
A: The solubility (mole fraction) was 0.431.

Q: And the solubility (mole fraction) (in acetone, 303.15 K)?
A: The solubility (mole fraction) was 0.497.

Q: What about the solubility (mole fraction) (in acetone, 308.15 K) of the same compound?
A: The solubility (mole fraction) was 0.568.

Q: What about the solubility (mole fraction) (in acetone, 313.15 K) of the same compound?
A: Its solubility (mole fraction) is 0.642.

Q: And the solubility (mole fraction) (in acetonitrile, 278.15 K)?
A: The solubility (mole fraction) was 0.162.

Q: What about the solubility (mole fraction) (in acetonitrile, 283.15 K) of the same compound?
A: The solubility (mole fraction) was 0.214.

Q: And the solubility (mole fraction) (in acetonitrile, 288.15 K)?
A: The solubility (mole fraction) was 0.287.

Q: What about the solubility (mole fraction) (in acetonitrile, 293.15 K) of the same compound?
A: The solubility (mole fraction) was 0.361.

Q: And the solubility (mole fraction) (in acetonitrile, 298.15 K)?
A: Its solubility (mole fraction) is 0.454.

Q: And the solubility (mole fraction) (in acetonitrile, 303.15 K)?
A: Its solubility (mole fraction) is 0.548.

Q: What about the solubility (mole fraction) (in acetonitrile, 308.15 K) of the same compound?
A: The solubility (mole fraction) was 0.638.

Q: And the solubility (mole fraction) (in acetonitrile, 313.15 K)?
A: Its solubility (mole fraction) is 0.735.

Q: What about the solubility (mole fraction) (in dichloromethane, 278.15 K) of the same compound?
A: The solubility (mole fraction) was 0.4.

Q: And the solubility (mole fraction) (in dichloromethane, 283.15 K)?
A: Its solubility (mole fraction) is 0.429.

Q: What about the solubility (mole fraction) (in dichloromethane, 288.15 K) of the same compound?
A: Its solubility (mole fraction) is 0.466.

Q: What about the solubility (mole fraction) (in dichloromethane, 293.15 K) of the same compound?
A: Its solubility (mole fraction) is 0.502.

Q: And the solubility (mole fraction) (in dichloromethane, 298.15 K)?
A: Its solubility (mole fraction) is 0.537.

Q: What about the solubility (mole fraction) (in dichloromethane, 303.15 K) of the same compound?
A: Its solubility (mole fraction) is 0.588.

Q: What about the solubility (mole fraction) (in dichloromethane, 308.15 K) of the same compound?
A: The solubility (mole fraction) was 0.646.

Q: And the solubility (mole fraction) (in dichloromethane, 313.15 K)?
A: The solubility (mole fraction) was 0.729.

Q: What about the solubility (mole fraction) (in ethanol, 278.15 K) of the same compound?
A: Its solubility (mole fraction) is 0.236.

Q: What about the solubility (mole fraction) (in ethanol, 283.15 K) of the same compound?
A: The solubility (mole fraction) was 0.276.

Q: And the solubility (mole fraction) (in ethanol, 288.15 K)?
A: Its solubility (mole fraction) is 0.327.

Q: What about the solubility (mole fraction) (in ethanol, 293.15 K) of the same compound?
A: Its solubility (mole fraction) is 0.379.

Q: What about the solubility (mole fraction) (in ethanol, 298.15 K) of the same compound?
A: Its solubility (mole fraction) is 0.44.

Q: And the solubility (mole fraction) (in ethanol, 303.15 K)?
A: Its solubility (mole fraction) is 0.508.

Q: What about the solubility (mole fraction) (in ethanol, 308.15 K) of the same compound?
A: The solubility (mole fraction) was 0.581.

Q: What about the solubility (mole fraction) (in ethanol, 313.15 K) of the same compound?
A: The solubility (mole fraction) was 0.662.

Q: And the solubility (mole fraction) (in ethyl acetate, 278.15 K)?
A: The solubility (mole fraction) was 0.215.

Q: And the solubility (mole fraction) (in ethyl acetate, 283.15 K)?
A: Its solubility (mole fraction) is 0.259.

Q: What about the solubility (mole fraction) (in ethyl acetate, 288.15 K) of the same compound?
A: The solubility (mole fraction) was 0.308.

Q: What about the solubility (mole fraction) (in ethyl acetate, 293.15 K) of the same compound?
A: Its solubility (mole fraction) is 0.369.

Q: And the solubility (mole fraction) (in ethyl acetate, 298.15 K)?
A: The solubility (mole fraction) was 0.433.

Q: What about the solubility (mole fraction) (in ethyl acetate, 303.15 K) of the same compound?
A: Its solubility (mole fraction) is 0.511.

Q: What about the solubility (mole fraction) (in ethyl acetate, 308.15 K) of the same compound?
A: Its solubility (mole fraction) is 0.587.

Q: What about the solubility (mole fraction) (in ethyl acetate, 313.15 K) of the same compound?
A: Its solubility (mole fraction) is 0.671.

Q: And the solubility (mole fraction) (in ethyl formate, 278.15 K)?
A: Its solubility (mole fraction) is 0.152.

Q: And the solubility (mole fraction) (in ethyl formate, 283.15 K)?
A: Its solubility (mole fraction) is 0.191.

Q: And the solubility (mole fraction) (in ethyl formate, 288.15 K)?
A: The solubility (mole fraction) was 0.242.

Q: And the solubility (mole fraction) (in ethyl formate, 293.15 K)?
A: The solubility (mole fraction) was 0.303.

Q: And the solubility (mole fraction) (in ethyl formate, 298.15 K)?
A: The solubility (mole fraction) was 0.372.

Q: What about the solubility (mole fraction) (in ethyl formate, 303.15 K) of the same compound?
A: Its solubility (mole fraction) is 0.449.

Q: And the solubility (mole fraction) (in ethyl formate, 308.15 K)?
A: The solubility (mole fraction) was 0.537.

Q: And the solubility (mole fraction) (in ethyl formate, 313.15 K)?
A: The solubility (mole fraction) was 0.62.

Q: What about the solubility (mole fraction) (in isobutanol, 278.15 K) of the same compound?
A: Its solubility (mole fraction) is 0.231.

Q: What about the solubility (mole fraction) (in isobutanol, 283.15 K) of the same compound?
A: The solubility (mole fraction) was 0.275.

Q: What about the solubility (mole fraction) (in isobutanol, 288.15 K) of the same compound?
A: Its solubility (mole fraction) is 0.321.

Q: And the solubility (mole fraction) (in isobutanol, 293.15 K)?
A: The solubility (mole fraction) was 0.373.

Q: And the solubility (mole fraction) (in isobutanol, 298.15 K)?
A: The solubility (mole fraction) was 0.446.

Q: And the solubility (mole fraction) (in isobutanol, 303.15 K)?
A: The solubility (mole fraction) was 0.513.

Q: And the solubility (mole fraction) (in isobutanol, 308.15 K)?
A: The solubility (mole fraction) was 0.594.

Q: What about the solubility (mole fraction) (in isobutanol, 313.15 K) of the same compound?
A: Its solubility (mole fraction) is 0.667.

Q: And the solubility (mole fraction) (in isopropanol, 278.15 K)?
A: Its solubility (mole fraction) is 0.248.

Q: What about the solubility (mole fraction) (in isopropanol, 283.15 K) of the same compound?
A: The solubility (mole fraction) was 0.283.

Q: What about the solubility (mole fraction) (in isopropanol, 288.15 K) of the same compound?
A: The solubility (mole fraction) was 0.33.

Q: What about the solubility (mole fraction) (in isopropanol, 293.15 K) of the same compound?
A: The solubility (mole fraction) was 0.386.

Q: What about the solubility (mole fraction) (in isopropanol, 298.15 K) of the same compound?
A: Its solubility (mole fraction) is 0.448.

Q: What about the solubility (mole fraction) (in isopropanol, 303.15 K) of the same compound?
A: Its solubility (mole fraction) is 0.527.

Q: What about the solubility (mole fraction) (in isopropanol, 308.15 K) of the same compound?
A: The solubility (mole fraction) was 0.597.

Q: What about the solubility (mole fraction) (in isopropanol, 313.15 K) of the same compound?
A: Its solubility (mole fraction) is 0.674.

Q: And the solubility (mole fraction) (in n-butanol, 278.15 K)?
A: Its solubility (mole fraction) is 0.252.

Q: And the solubility (mole fraction) (in n-butanol, 283.15 K)?
A: Its solubility (mole fraction) is 0.287.

Q: What about the solubility (mole fraction) (in n-butanol, 288.15 K) of the same compound?
A: The solubility (mole fraction) was 0.334.

Q: What about the solubility (mole fraction) (in n-butanol, 293.15 K) of the same compound?
A: Its solubility (mole fraction) is 0.385.

Q: What about the solubility (mole fraction) (in n-butanol, 298.15 K) of the same compound?
A: The solubility (mole fraction) was 0.45.

Q: And the solubility (mole fraction) (in n-butanol, 303.15 K)?
A: Its solubility (mole fraction) is 0.51.

Q: And the solubility (mole fraction) (in n-butanol, 308.15 K)?
A: The solubility (mole fraction) was 0.584.

Q: And the solubility (mole fraction) (in n-butanol, 313.15 K)?
A: The solubility (mole fraction) was 0.698.

Q: What about the solubility (mole fraction) (in n-propanol, 278.15 K) of the same compound?
A: Its solubility (mole fraction) is 0.253.

Q: And the solubility (mole fraction) (in n-propanol, 283.15 K)?
A: Its solubility (mole fraction) is 0.293.

Q: What about the solubility (mole fraction) (in n-propanol, 288.15 K) of the same compound?
A: The solubility (mole fraction) was 0.34.

Q: And the solubility (mole fraction) (in n-propanol, 293.15 K)?
A: The solubility (mole fraction) was 0.398.

Q: And the solubility (mole fraction) (in n-propanol, 298.15 K)?
A: Its solubility (mole fraction) is 0.454.

Q: What about the solubility (mole fraction) (in n-propanol, 303.15 K) of the same compound?
A: Its solubility (mole fraction) is 0.518.

Q: What about the solubility (mole fraction) (in n-propanol, 308.15 K) of the same compound?
A: The solubility (mole fraction) was 0.595.

Q: And the solubility (mole fraction) (in n-propanol, 313.15 K)?
A: The solubility (mole fraction) was 0.674.
